# Measurements taken from US12364674B2, “Compounds and combinations thereof for treating neurological and psychiatric conditions” (priority 2022, dated 2025).
# Structures can show the parent of a compound that is named as a salt. Where two headings read alike, the source gives them in different places.
# Experiments:
# [1] = Example 1: subject combination in subjects with moderate renal impairment vs matched controls; settings: moderate renal impairment (GFR 30-60 mL/min)
# [2] = Example 3: co-administration of paroxetine and the subject combination in healthy volunteers
# Excerpt: Co-administration of the SSRI paroxetine and the subject combination was studied in 29 healthy volunteers.
# [3] = Example 2: pharmacokinetics of the subject combination in CYP2D6 poor metabolizers; settings: 3 CYP2D6 poor metabolizers
# Excerpt: Approximately 7 to 10% of Caucasians and 3 to 8% of African Americans lack the capacity to metabolize CYP2D6 substrates and are classified as poor metabolizers.
# [4] = Steady-state pharmacokinetics of dextromethorphan, bupropion and metabolites after administration of the subject combination; settings: for changes in AUC and Cmax with dose (dose proportionality): steady state, co-administered with bupropion
# [5] = Example 4: exposure to the 45 mg dextromethorphan hydrobromide/105 mg bupropion hydrochloride tablet in moderate renal impairment (FIG. 1); settings: 8 days of twice daily dosing of the tablet
# [6] = human, in vivo
# [7] = human, in vivo; remark: listed apart in the source
smiles,measurement,setting,value
"COc1ccc2c(c1)[C@]13CCCC[C@@H]1[C@H](C2)N(C)CC3 [dextromethorphan, morphinan, 3-methoxy-17-methyl-, (9α, 13α, 14α), hydrobromide monohydrate]",reduction of clearance vs matched controls with normal renal function,[1],50%
same,increase of exposure vs matched controls with normal renal function,[1]; 7 subjects vs 6 controls,approximately 2 fold
same,change of overall exposure on co-administration of paroxetine,"[2]; 29 healthy volunteers, paroxetine with the subject combination",2.5 fold
same,increase in AUC0-12 compared to extensive metabolizers,[3],~3.4 fold
same,increase in Cmax compared to extensive metabolizers,[3],~3 fold
same,increase of mean elimination half-life compared to dextromethorphan given without bupropion,"[4]; 8 days of administration of the subject combination, extensive metabolizers",approximately 3 fold
same,changes in AUC and Cmax with dose (dose proportionality),[4]; varying doses of bupropion (75 to 150 mg),less than dose-proportional
same,changes in AUC and Cmax with dose (dose proportionality),[4]; varying doses of dextromethorphan (30 to 60 mg),greater than dose-proportional
same,mean elimination half-life,[4]; subject combination,22 h
same,increase in AUC0-12 (GMR vs matched healthy subjects),[5],2.21 fold
same,increase in Cmax (GMR vs matched healthy subjects),[5],2.10 fold
"CC(NC(C)(C)C)C(=O)c1cccc(Cl)c1.Cl (racemic) [bupropion, (±)-1-(3-chlorophenyl)-2-[(1,1-dimethylethyl)amino]-1-propanone hydrochloride]",increase of exposure vs matched controls with normal renal function,[6],approximately 2 fold
same,reduction of clearance vs matched controls with normal renal function,[6],50%
same,increase in AUC0-12 (GMR vs matched healthy subjects),[7],1.80 fold
same,increase in Cmax (GMR vs matched healthy subjects),[7],1.87 fold
Fc1ccc([C@@H]2CCNC[C@H]2COc2ccc3c(c2)OCO3)cc1 [paroxetine],increase of overall exposure of paroxetine when co-administered with the subject combination,"[2]; human, in vivo",1.2 fold
